A word on the melting point: it is the temperature, or range, at which the solid turns liquid. Take `Cc1nc(SCc2ccc(Cl)cc2)nc2c1CCCC2`: the melting point turned out to be 48 °C. The same measure for `Cc1nc([S+]([O-])Cc2ccc(Cl)cc2)nc2c1CCCC2` (stereo not drawn): 127 °C; for `Cc1nc(S(=O)(=O)Cc2ccc(Cl)cc2)nc2c1CCCC2`: 151 °C.

Source of the values: patent US20050065166A1, “Substituted pyrimidines” (priority 2001, published 2005).
